Test results from PMC4823954, “From fighting depression to conquering tumors: a novel tricyclic thiazepine compound as a tubulin polymerization inhibitor” (Cell Death & Disease, 2016).

What was measured:
H460TaxR = experiment: Immunofluorescence staining for microtubule structure; type: cell-based, human; conditions: 2 μM, 24 h
Experimental: (§1) The cells were washed in PBS and then fixed in paraformaldehyde (4% v/v) for 10 min. After the cells were washed three times in PBS, they were blocked with 5% (w/v) BSA for 30 min at RT. Then, α-tubulin antibody (CST, Beverly, MA, USA) was incubated with cells in a humid chamber overnight at 4 °C. After the cells were washed three times in PBS, they were incubated with goat anti-rabbit IgG-FITC (Jackson ImmunoResearch, West Grove, PA, USA) for 1 h at 37 °C. Then, the cells were mounted with mounting medium containing DAPI (Vector Lab, Peterborough, UK) after they were washed three times in PBS. Finally, the cells were observed and imaged using a fluorescence microscope (Olympus IX71, Tokyo, Japan).

H460 = experiment: as above; type: cell-based, human; conditions: H460, 2 μM, 24 h
Experimental: as §1

EGFR(L858R) = biological target: T1, EGFR(L858R) (Homo sapiens, UniProt P00533, L858R); experiment: KINOMEscan; type: binding; conditions: read-out: % Ctrl
T1 construct: purchased DiscoveRx KINOMEscan
T1 sequence (P00533 25-1210 L858R): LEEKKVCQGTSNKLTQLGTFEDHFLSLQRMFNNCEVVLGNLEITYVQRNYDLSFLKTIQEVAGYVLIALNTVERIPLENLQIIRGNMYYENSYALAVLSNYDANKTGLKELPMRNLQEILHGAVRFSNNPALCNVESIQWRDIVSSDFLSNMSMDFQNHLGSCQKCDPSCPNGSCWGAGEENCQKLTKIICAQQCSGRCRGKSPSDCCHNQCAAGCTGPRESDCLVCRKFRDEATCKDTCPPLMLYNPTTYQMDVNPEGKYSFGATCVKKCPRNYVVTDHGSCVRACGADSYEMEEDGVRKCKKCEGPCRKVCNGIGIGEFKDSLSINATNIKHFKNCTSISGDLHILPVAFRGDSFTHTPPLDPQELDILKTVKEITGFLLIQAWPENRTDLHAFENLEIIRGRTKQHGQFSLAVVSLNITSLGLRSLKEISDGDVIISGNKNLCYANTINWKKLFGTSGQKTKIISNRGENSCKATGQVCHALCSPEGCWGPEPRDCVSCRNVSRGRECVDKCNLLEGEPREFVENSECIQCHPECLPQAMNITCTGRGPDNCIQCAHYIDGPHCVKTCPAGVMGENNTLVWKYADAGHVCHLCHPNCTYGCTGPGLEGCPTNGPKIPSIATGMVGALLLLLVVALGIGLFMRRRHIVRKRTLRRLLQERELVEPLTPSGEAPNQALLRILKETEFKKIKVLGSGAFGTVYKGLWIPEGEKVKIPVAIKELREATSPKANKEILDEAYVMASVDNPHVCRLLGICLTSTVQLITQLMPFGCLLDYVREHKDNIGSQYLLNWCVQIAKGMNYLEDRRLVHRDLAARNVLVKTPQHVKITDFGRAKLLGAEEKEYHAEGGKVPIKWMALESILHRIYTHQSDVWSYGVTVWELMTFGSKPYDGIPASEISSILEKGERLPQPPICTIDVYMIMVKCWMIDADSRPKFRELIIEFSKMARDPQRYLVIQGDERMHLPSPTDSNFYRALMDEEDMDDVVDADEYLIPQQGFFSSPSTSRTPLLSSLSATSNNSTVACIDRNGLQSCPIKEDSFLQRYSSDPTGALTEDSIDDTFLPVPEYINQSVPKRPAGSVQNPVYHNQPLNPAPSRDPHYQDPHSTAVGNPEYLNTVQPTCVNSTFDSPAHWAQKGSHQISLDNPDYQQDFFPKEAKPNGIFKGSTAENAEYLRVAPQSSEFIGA

FLT3(D835H) = biological target: T2, FLT3(D835H) (Homo sapiens, UniProt P36888, D835H); experiment: KINOMEscan; type: binding; conditions: read-out: % Ctrl
T2 construct: purchased DiscoveRx KINOMEscan

[1] = biological target: T3, ABL1(F317I)-nonphosphorylated (Homo sapiens, UniProt P00519, F317I); experiment: KINOMEscan; type: binding; conditions: read-out: % Ctrl
T3 construct: purchased DiscoveRx KINOMEscan
T3 sequence (P00519 whole entry F317I): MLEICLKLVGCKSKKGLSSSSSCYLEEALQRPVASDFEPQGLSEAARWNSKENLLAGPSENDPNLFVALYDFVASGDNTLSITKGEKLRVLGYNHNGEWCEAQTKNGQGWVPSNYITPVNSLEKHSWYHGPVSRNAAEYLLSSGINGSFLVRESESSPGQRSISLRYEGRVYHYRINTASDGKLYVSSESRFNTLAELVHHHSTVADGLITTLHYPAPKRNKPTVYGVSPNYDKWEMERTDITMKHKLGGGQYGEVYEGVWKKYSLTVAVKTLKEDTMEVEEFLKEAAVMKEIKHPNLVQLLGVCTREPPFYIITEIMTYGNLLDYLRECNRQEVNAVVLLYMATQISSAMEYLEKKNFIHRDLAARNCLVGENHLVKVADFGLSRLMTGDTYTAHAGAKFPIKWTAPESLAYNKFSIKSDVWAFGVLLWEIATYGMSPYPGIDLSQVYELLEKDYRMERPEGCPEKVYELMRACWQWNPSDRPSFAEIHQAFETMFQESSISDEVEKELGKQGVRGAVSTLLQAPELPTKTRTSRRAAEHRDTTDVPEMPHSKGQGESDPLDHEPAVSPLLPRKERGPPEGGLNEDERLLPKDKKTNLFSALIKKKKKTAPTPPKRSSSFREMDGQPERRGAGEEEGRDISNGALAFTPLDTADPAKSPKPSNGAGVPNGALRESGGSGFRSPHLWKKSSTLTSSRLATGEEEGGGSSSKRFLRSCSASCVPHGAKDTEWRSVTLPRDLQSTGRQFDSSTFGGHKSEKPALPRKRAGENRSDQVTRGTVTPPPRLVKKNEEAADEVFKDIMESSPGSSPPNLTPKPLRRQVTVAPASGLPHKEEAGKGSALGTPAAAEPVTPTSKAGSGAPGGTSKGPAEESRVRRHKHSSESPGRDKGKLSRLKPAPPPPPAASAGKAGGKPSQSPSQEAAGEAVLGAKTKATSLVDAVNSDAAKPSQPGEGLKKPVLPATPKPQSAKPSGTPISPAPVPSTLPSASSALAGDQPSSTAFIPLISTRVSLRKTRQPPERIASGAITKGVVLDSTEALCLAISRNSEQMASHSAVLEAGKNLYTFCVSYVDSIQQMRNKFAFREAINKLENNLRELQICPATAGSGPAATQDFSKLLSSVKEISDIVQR

[2] = biological target: T4, EGFR(L747-S752del, P753S) (Homo sapiens, UniProt P00533, DEL747-752/P753S); experiment: KINOMEscan; type: binding; conditions: read-out: % Ctrl
T4 construct: purchased DiscoveRx KINOMEscan

tubulin = biological target: T5, tubulin (Sus scrofa, UniProt P02550+P02554); experiment: Tubulin polymerization assay (cell-free); type: biochemical; conditions: fluorescence, 50 min, 37 °C, read-out: IC50 of tubulin polymerization (microtubule formation)
T5 construct: purchased Cytoskeleton, Denver, CO, USA
Experimental: A fluorescence-based tubulin polymerization assay kit was used to monitor the polymerization process according to the manufacturer's instructions (Cytoskeleton, Denver, CO, USA). […] Tubulin solution (50 μl) was dispensed rapidly into each well.

mice hippocampus cells = experiment: Cell cycle and apoptosis analysis; conditions: 2 μM
Experimental: Cell cycle and apoptosis analyses were performed on a Guava EasyCyte Flow Cytometry System (Millipore, Billerica, MA, USA). Cells were seeded in 6-cm culture plates and treated with 2 μM TBPT or an equal volume of DMSO on the next day for the indicated times. To analyze the intracellular DNA content, cells were harvested, washed twice in PBS and fixed in 70% ethanol at −20 °C overnight. After the cells were washed in PBS, they were stained with Guava cell cycle reagent (Millipore) and analyzed via flow cytometry. For cell apoptosis analysis, the cells were harvested, washed in PBS, stained with PI/Annexin V-FITC reagent (Life Technologies) and analyzed by flow cytometry.
The cell cycle (a) and apoptosis (b) analysis of mice hippocampus cells. The new-born mice hippocampus cells were derived and cultured as previously report (F Lu et al. Cell Death and Disease, 2012). Cells were treated with DMSO or TBPT (2 μM) for the indicated times. After the cells were stained, they were analyzed for cell cycle and apoptosis using flow cytometry.

FLT3(K663Q) = biological target: T6, FLT3(K663Q) (Homo sapiens, UniProt P36888, K663Q); experiment: KINOMEscan; type: binding; conditions: read-out: % Ctrl
T6 construct: purchased DiscoveRx KINOMEscan

HCK = biological target: T7, HCK (Homo sapiens, UniProt P08631); experiment: KINOMEscan; type: binding; conditions: read-out: % Ctrl
T7 construct: purchased DiscoveRx KINOMEscan
Experimental: (§2) The binding assay for 442 non-mutant kinases was performed using KINOMEscan (DiscoveRx Corporation, Fremont, CA, USA) as reported previously.[58], [59] TBPT was screened at concentrations of 5 and 10 μM to identify the affected kinases. KINOMEscan is based on a competition reaction that quantitatively measures the ability of a test compound to compete with an active site-directed ligand for binding to the kinase active site. […] After the assay plates were incubated with shaking for 1 h, the liganded beads were washed with washing buffer (1 × PBS and 0.05% Tween 20). Then, the beads were re-suspended in elution buffer (1 × PBS, 0.05% Tween 20, and 0.5 μM ligand) and incubated with shaking for 30 min. The kinase concentration in the eluates was measured via qPCR. The results are represented as ‘%Ctrl', which was calculated using the following formula: (test compound signal–positive control signal)/(DMSO signal–positive control signal) × 100%. A lower % Ctrl indicates stronger binding to the kinase active site.

CDKL3 = biological target: T8, CDKL3 (Homo sapiens, UniProt Q8IVW4); experiment: KINOMEscan; type: binding; conditions: read-out: % Ctrl
T8 construct: purchased DiscoveRx KINOMEscan
Experimental: as §2

OSR1 = biological target: T9, OSR1 (Homo sapiens, UniProt O95747); experiment: KINOMEscan; type: binding; conditions: read-out: % Ctrl
T9 construct: purchased DiscoveRx KINOMEscan
Experimental: as §2

EGFR(E746-A750del) = biological target: T10, EGFR(E746-A750del) (Homo sapiens, UniProt P00533, DEL746-750); experiment: KINOMEscan; type: binding; conditions: read-out: % Ctrl
T10 construct: purchased DiscoveRx KINOMEscan
Experimental: as §2

MYO3B = biological target: T11, MYO3B (Homo sapiens, UniProt Q8WXR4); experiment: KINOMEscan; type: binding; conditions: read-out: % Ctrl
T11 construct: purchased DiscoveRx KINOMEscan
T11 sequence (Q8WXR4 whole entry): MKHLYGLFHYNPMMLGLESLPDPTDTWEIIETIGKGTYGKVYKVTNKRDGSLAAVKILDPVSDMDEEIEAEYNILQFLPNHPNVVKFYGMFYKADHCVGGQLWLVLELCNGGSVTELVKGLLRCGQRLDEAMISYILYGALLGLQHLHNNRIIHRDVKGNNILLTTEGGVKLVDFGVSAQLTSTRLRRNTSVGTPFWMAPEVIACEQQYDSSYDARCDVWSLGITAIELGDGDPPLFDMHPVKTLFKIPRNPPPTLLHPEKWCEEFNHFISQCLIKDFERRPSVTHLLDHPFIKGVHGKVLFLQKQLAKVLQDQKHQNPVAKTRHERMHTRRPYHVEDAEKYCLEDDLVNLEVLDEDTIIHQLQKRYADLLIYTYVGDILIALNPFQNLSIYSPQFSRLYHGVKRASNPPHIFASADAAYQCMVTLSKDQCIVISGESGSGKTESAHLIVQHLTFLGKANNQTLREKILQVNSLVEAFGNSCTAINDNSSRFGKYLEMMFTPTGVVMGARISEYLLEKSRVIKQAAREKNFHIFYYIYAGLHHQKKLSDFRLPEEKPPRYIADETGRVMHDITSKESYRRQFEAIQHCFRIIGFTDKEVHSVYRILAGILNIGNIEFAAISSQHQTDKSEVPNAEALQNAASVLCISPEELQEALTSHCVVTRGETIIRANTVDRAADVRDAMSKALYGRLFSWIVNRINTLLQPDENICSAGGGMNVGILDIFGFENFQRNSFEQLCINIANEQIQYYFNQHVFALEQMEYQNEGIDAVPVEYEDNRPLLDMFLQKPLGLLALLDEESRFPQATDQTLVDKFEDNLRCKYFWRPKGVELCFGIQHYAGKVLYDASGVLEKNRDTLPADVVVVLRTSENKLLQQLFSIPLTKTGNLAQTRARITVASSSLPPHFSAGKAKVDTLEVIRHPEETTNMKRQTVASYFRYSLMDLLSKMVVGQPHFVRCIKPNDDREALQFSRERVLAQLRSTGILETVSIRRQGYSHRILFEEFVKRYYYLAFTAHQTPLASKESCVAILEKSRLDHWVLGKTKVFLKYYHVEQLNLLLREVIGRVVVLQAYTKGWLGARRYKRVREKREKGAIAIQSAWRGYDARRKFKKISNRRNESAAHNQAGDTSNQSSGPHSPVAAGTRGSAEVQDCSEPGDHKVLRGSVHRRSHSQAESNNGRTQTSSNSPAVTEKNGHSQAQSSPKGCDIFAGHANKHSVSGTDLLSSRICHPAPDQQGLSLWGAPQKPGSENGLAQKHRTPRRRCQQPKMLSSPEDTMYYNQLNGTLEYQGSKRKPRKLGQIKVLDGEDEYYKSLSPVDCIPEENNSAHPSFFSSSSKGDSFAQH
Experimental: as §2

TYRO3 = biological target: T12, TYRO3 (Homo sapiens, UniProt Q06418); experiment: KINOMEscan; type: binding; conditions: read-out: % Ctrl
T12 construct: purchased DiscoveRx KINOMEscan
T12 sequence (Q06418 41-890): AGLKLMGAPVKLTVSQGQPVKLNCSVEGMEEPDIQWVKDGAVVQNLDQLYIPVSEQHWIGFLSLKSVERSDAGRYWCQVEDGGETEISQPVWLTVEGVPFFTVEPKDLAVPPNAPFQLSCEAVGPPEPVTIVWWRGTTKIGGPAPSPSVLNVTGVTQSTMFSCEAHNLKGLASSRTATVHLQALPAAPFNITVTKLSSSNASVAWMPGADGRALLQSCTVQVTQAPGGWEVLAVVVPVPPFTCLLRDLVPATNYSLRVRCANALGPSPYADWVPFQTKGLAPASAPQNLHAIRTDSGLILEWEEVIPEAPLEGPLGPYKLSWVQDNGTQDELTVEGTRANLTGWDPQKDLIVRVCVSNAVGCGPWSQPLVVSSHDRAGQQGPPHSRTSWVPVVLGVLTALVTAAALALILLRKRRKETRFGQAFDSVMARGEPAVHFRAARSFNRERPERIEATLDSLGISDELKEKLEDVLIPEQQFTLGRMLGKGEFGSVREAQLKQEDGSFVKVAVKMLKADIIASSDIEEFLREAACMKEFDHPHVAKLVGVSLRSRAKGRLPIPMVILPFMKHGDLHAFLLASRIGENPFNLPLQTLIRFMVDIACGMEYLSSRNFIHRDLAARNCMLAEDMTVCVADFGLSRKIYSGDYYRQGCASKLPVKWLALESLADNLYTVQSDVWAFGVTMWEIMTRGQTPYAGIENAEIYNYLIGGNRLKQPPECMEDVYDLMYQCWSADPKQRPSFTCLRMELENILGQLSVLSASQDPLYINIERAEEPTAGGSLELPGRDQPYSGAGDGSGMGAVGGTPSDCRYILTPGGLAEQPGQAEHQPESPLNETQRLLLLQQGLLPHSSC
Experimental: as §2

TGFBR2 = biological target: T13, TGFBR2 (Homo sapiens, UniProt P37173); experiment: KINOMEscan; type: binding; conditions: read-out: % Ctrl
T13 construct: purchased DiscoveRx KINOMEscan
T13 sequence (P37173 23-567): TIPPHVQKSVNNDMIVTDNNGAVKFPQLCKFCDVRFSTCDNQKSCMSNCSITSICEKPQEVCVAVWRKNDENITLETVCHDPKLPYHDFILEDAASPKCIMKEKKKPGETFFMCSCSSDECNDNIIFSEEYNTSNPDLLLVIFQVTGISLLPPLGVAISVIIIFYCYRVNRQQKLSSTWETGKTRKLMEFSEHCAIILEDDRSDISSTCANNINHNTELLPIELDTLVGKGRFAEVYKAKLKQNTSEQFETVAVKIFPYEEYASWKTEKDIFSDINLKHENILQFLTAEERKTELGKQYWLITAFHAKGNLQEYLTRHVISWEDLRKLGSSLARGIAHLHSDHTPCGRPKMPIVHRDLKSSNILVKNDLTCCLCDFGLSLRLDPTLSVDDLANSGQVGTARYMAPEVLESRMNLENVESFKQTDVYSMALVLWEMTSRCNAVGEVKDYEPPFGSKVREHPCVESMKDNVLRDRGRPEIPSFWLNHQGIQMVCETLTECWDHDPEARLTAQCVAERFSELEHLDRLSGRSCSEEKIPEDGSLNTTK
Experimental: as §2

CLK3 = biological target: T14, CLK3 (Homo sapiens, UniProt P49761); experiment: KINOMEscan; type: binding; conditions: read-out: % Ctrl
T14 construct: purchased DiscoveRx KINOMEscan
Experimental: as §2

HIPK4 = biological target: T15, HIPK4 (Homo sapiens, UniProt Q8NE63); experiment: KINOMEscan; type: binding; conditions: read-out: % Ctrl
T15 construct: purchased DiscoveRx KINOMEscan
Experimental: as §2

[3] = parallel artificial membrane permeability assay (PAMPA); type: in vitro ADME
From the text: (§3) As in vivo investigations are generally time consuming and expensive, it is advantageous to eliminate those compounds that are not suitable for animal experiments. One of the necessary steps is to screen the initial hits using assays testing their possible behaviors in vivo. To evaluate the drug-like properties of TBPT, a panel of in vitro assays was preformed (Table 1). The parallel artificial membrane permeability assay (PAMPA) was used to evaluate the cell permeability of the compounds. Compounds with a Pe >[…] are classified as highly permeable. […] The Caco-2 assay was used to predict the oral absorption values of the compounds in vivo. Compounds with a Caco-2 efflux ratio >2 may be subject to active efflux and should not be developed further. […] The half-life (T1/2) in human liver microsomes is used to predict the metabolism properties of compounds in vivo. […] A very long T1/2 (>24 h) increases the risk of cumulative toxicity and is not desirable. […] T1/2 in plasma indicates the stability of the drug in human blood; the high T1/2 values of these compounds indicated better stability in vivo. Plasma protein binding influences the distribution of drugs into body tissues, and compounds with high plasma protein binding (>99%) are limited in terms of the amount of free compound that are available to act on the targeted tissue. […]

plasma stability = type: in vitro ADME; conditions: human, read-out: T1/2 in human plasma
From the text: as §3

Structure (SMILES): Cc1ccc(C2=Nc3cccnc3S(=O)(=O)c3ccccc32)cc1 [TBPT, 6-(p-tolyl)benzo[f] pyrido[2,3-b][1,4] thiazepine 11,11-dioxide]
- microtubule organization in live cells (H460TaxR): disordered microtubule fragments
- microtubule organization in live cells (H460): disordered microtubule fragments
- remaining binding at 5 µM (EGFR(L858R); 5 μM): 85%
- remaining binding at 10 µM (EGFR(L858R); 10 μM): 100%
- remaining binding at 5 µM (FLT3(D835H); 5 μM): 100%
- remaining binding at 10 µM (FLT3(D835H); 10 μM): 97%
- remaining binding at 5 µM ([1]; 5 μM): 89%
- remaining binding at 10 µM ([1]; 10 μM): 100%
- remaining binding at 5 µM ([2]; 5 μM): 76%
- remaining binding at 10 µM ([2]; 10 μM): 91%
- IC50 (tubulin): 12.6 µM
- cell cycle arrest or apoptosis (mice hippocampus cells): very little cell cycle arrest or apoptosis
- remaining binding at 5 µM (FLT3(K663Q); 5 μM): 84%
- remaining binding at 10 µM (FLT3(K663Q); 10 μM): 94%
- remaining binding at 5 µM (HCK; 5 μM): 93%
- remaining binding at 10 µM (HCK; 10 μM): 100%
- remaining binding at 5 µM (CDKL3; 5 μM): 77%
- remaining binding at 10 µM (CDKL3; 10 μM): 74%
- remaining binding at 5 µM (OSR1; 5 μM): 100%
- remaining binding at 10 µM (OSR1; 10 μM): 87%
- remaining binding at 5 µM (EGFR(E746-A750del); 5 μM): 81%
- remaining binding at 10 µM (EGFR(E746-A750del); 10 μM): 100%
- remaining binding at 5 µM (MYO3B; 5 μM): 100%
- remaining binding at 10 µM (MYO3B; 10 μM): 100%
- remaining binding at 5 µM (TYRO3; 5 μM): 99%
- remaining binding at 10 µM (TYRO3; 10 μM): 100%
- remaining binding at 5 µM (TGFBR2; 5 μM): 100%
- remaining binding at 10 µM (TGFBR2; 10 μM): 81%
- remaining binding at 5 µM (CLK3; 5 μM): 100%
- remaining binding at 10 µM (CLK3; 10 μM): 100%
- remaining binding at 5 µM (HIPK4; 5 μM): 91%
- remaining binding at 10 µM (HIPK4; 10 μM): 100%
- PAMPA Pe [3]: 1081.1±30.2 10^−6cm/s
- half-life (plasma stability): > 50 h
